According to US4388304A, “Angiotensin-II analogues with antagonizing effects, containing an ester group in position 8, and a process for the preparation thereof” (Richter Gedeon Vegyeszeti Gyar RT, priority 1980, dated 1983):

Tested on: narcotized male cats
Assay: Antagonism of Hypertensin (angiotensin-II) infusion-induced blood pressure rise in narcotized male cats
Assay type: in vivo, cat
Method: The antagonistic effects of the new compounds of the general formula (I) were investigated on narcotized male cats. After treating the animals with a ganglion blocking agent and bisecting the cervical vagus nerves on both side, an infusion of Hypertensin (CIBA) was given to the animals at a rate of 0.5 μg/kg/min. When the blood pressure of the animals reached a steady, increased level, the substance to be tested was administered either intravenously or subcutaneously in physiological saline solution or as an aqueous solution which also contained a carrier. The blood pressure drop was measured in mm Hg units, and the extent of decrease was expressed in percent related to the value before treatment. The statistical evaluation was performed on the basis of the blood pressure differences, by Student's single sample "t" test. The term "duration of effect" denotes the period elapsed until the observation of the last, still significant (p=5%) blood pressure difference.

[1] = s.c., physiological saline, dose 100 μg/kg
[2] = s.c., carboxymethyl cellulose (CMC), dose 100 μg/kg
[3] = s.c., carboxymethyl cellulose (CMC), dose 200 μg/kg
[4] = s.c., carboxymethyl cellulose (CMC), dose 50 μg/kg
[5] = s.c., physiological saline, dose 50 μg/kg

## CC[C@H](C)[C@H](NC(=O)[C@H](Cc1ccc(O)cc1)NC(=O)[C@@H](NC(=O)[C@H](CCCNC(=N)N)NC(=O)CNC)C(C)C)C(=O)N[C@@H](Cc1c[nH]cn1)C(=O)N1CCC[C@H]1C(=O)N[C@H](C(=O)OC)[C@@H](C)OC [(Sar^1,Thr/Me/--OMe^8)-Ang-II, (sarcosine^1, threonine/Me/methyl ester^8)-angiotensin-II]
i.v., dose 20 μg/kg
  blood pressure decrease, percent related to the value before treatment: 12%
  duration of effect: 12 min
[1]
  blood pressure decrease, percent related to the value before treatment: 27%
  duration of effect: 45 min

## CNCC(=O)N[C@@H](CCCN=C(N)N)C(=O)N[C@H](C(=O)N[C@@H](Cc1ccc(O)cc1)C(=O)N[C@H](C(=O)N[C@@H](Cc1cnc[nH]1)C(=O)N1CCC[C@H]1C(=O)N[C@@H](C)C(=O)O)C(C)C)C(C)C [Saralasin, (Sar^1, Ala^8)-angiotensin-II, reference compound]
i.v., dose 10 μg/kg
  blood pressure decrease, percent related to the value before treatment: 32%
[2]
  blood pressure decrease, percent related to the value before treatment: 23%
  duration of effect: 45 min
[3]
  blood pressure decrease, percent related to the value before treatment: 28%
  duration of effect: 90 min
s.c., gelatine, dose 200 μg/kg
  blood pressure decrease, percent related to the value before treatment: 23%
  duration of effect: .phi.
[1]
  blood pressure decrease, percent related to the value before treatment: 29%
s.c., physiological saline, dose 200 μg/kg
  blood pressure decrease, percent related to the value before treatment: 24%

## CC[C@H](C)[C@H](NC(=O)[C@H](Cc1ccc(O)cc1)NC(=O)[C@@H](NC(=O)[C@H](CCCNC(=N)N)NC(=O)CNC)C(C)C)C(=O)N[C@@H](Cc1c[nH]cn1)C(=O)N1CCC[C@H]1C(=O)N[C@H](C(=O)OC)[C@@H](C)CC [(Sar^1,Ile--OMe^8)-Ang-II, (sarcosine^1, isoleucine methyl ester^8)angiotensin-II]
i.v., dose 20 μg/kg
  blood pressure decrease, percent related to the value before treatment: 21%
  duration of effect: 25 min
i.v., dose 40 μg/kg
  blood pressure decrease, percent related to the value before treatment: 20%
  duration of effect: 38 min
[4]
  blood pressure decrease, percent related to the value before treatment: 9%
  duration of effect: .phi.
[2]
  blood pressure decrease, percent related to the value before treatment: 17%
  duration of effect: 200 min
s.c., gelatine, dose 100 μg/kg
  blood pressure decrease, percent related to the value before treatment: 5%
  duration of effect: 15 min
s.c., gelatine, dose 200 μg/kg
  blood pressure decrease, percent related to the value before treatment: 23%
  duration of effect: 300 min
[5]
  blood pressure decrease, percent related to the value before treatment: 8%
  duration of effect: 180 min
[1]
  blood pressure decrease, percent related to the value before treatment: 25%
  duration of effect: 240 min

## CC[C@H](C)[C@H](NC(=O)[C@H](Cc1ccc(O)cc1)NC(=O)[C@@H](NC(=O)[C@H](CCCNC(=N)N)NC(=O)CNC)C(C)C)C(=O)N[C@@H](Cc1c[nH]cn1)C(=O)N1CCC[C@H]1C(=O)N[C@@H](C)C(=O)OC [(Sar^1,Ala--OMe^8)-Ang-II, (sarcosine^1, alanine methyl ester^8)-angiotensin-II]
i.v., dose 10 μg/kg
  blood pressure decrease, percent related to the value before treatment: 18%
  duration of effect: 12 min
i.v., dose 20 μg/kg
  blood pressure decrease, percent related to the value before treatment: 29%
  duration of effect: 60 min
[4]
  blood pressure decrease, percent related to the value before treatment: 11%
  duration of effect: 22 min
[2]
  blood pressure decrease, percent related to the value before treatment: 18%
  duration of effect: 22 min
[5]
  blood pressure decrease, percent related to the value before treatment: 20%
  duration of effect: 45 min
[1]
  blood pressure decrease, percent related to the value before treatment: 20%
  duration of effect: 45 min
